Laboratory results from patent US20170189409A1, “MEDICAL USE” (Almirall, S.A., priority 2014, published 2017).

How the values were obtained:
[1] = test system: autoantibody-mediated cutaneous lesions; assay: Immunization-induced mouse model of epidermolysis bullosa acquista (EBA); format: in vivo, B6.SJL-H2s mice; settings: for body weight gain: 6 week treatment, LAS191954 3 mg/kg/day, methylprednisolone 20 mg/kg/day
Procedure: Induction of experimental EBA was performed as described in […] et al., J Immunol. 2013; 191:2978-2988. Briefly, 6-10 week B6.SJL-[…] mice were immunized with an emulsion of a recombinant protein encompassing the vWFA2 binding domain of mouse type VII collagen (COL7) in adjuvant (Titermax). After immunization, mice were weekly evaluated for the presence and extend of clinical disease, measured as percentage of body surface affected by skin lesions (erythema, blisters, erosions and crusts). […] Treatments were carried out over a 6-week period, and mice were evaluated for the extend of clinical disease (primary endpoint) weekly. […] For better comparability between experiments, the affected body surface area at weeks 1-6 was related to that at inclusion (set at 1). Body weight was monitored weekly during treatment.

[2] = test system: anti-Dsg3 and anti-dsDNA autoantibody production; assay: MRL/lpr mouse spontaneous autoimmune disease model, autoantibody production; format: in vivo
Procedure: The primary endpoint of this study was assessment of autoantibody production, including pemphigus-specific anti-Dsg3 antibodies.
The prednisolone dose was selected based on previous reports and corresponds to a high CS dose in humans.
As autoantibodies develop progressively and may follow a different course in each animal, anti-dsDNA antibody levels were measured on week 12 and used to uniformly distribute animals to dosing groups. At week 13, daily treatments were initiated and continued for 6 weeks. Antibodies to dsDNA and Dsg3 were measured at weeks 12, 15, 17 and 19. Skin lesions were inspected visually throughout the study. Effects on other parameters such as proteinuria, as well as general hematological, serological, and histological signs were evaluated at study completion.

[3] = target: PI3K p110α (Homo sapiens, UniProt P42336); settings: compound pre-incubation time of 30 min
[4] = test system: anti-KLH antibody response; assay: Primary T-dependent antibody response (TDAR) to KLH in mice; format: in vivo
Procedure: This assay allows a global assessment of the effect of a drug candidate on antigen presentation, helper T lymphocyte function and B lymphocyte dependent antibody production.
In both cases, the administration of the test compound started on the day of sensitization (day +1, KLH 2 mg/mouse, intravenously). […] A possible reason for this discrepancy is that the lymphocyte count of the concurrent vehicle group of the latter study was abnormally lower than usual, which could mask a potential effect of the test compound on this parameter.

[5] = test system: anti-KLH antibody response; assay: Secondary TDAR assay to KLH in mice; format: in vivo
Procedure: This assay included two immunizations with KLH separated 15 days apart (50 μg KLH/animal, intraperitoneally) and specific IgG anti-KLH levels were measured on day +11 after the second immunization. Administration of test compound (0.3 and 3 mg/kg) started on the day of second immunization (day +1) and then once daily for the next 9 days.

[6] = target: PI3K p110β (Homo sapiens, UniProt P42338); settings: compound pre-incubation time of 30 min
[7] = test system: anti-Dsg3 antibody-induced skin damage; assay: Neonatal passive transfer model; settings: for mice with blisters: 8 mice treated
[8] = week 19 versus week 12 (FIG. 3)

PI3K p110β, sequence (P42338 whole entry): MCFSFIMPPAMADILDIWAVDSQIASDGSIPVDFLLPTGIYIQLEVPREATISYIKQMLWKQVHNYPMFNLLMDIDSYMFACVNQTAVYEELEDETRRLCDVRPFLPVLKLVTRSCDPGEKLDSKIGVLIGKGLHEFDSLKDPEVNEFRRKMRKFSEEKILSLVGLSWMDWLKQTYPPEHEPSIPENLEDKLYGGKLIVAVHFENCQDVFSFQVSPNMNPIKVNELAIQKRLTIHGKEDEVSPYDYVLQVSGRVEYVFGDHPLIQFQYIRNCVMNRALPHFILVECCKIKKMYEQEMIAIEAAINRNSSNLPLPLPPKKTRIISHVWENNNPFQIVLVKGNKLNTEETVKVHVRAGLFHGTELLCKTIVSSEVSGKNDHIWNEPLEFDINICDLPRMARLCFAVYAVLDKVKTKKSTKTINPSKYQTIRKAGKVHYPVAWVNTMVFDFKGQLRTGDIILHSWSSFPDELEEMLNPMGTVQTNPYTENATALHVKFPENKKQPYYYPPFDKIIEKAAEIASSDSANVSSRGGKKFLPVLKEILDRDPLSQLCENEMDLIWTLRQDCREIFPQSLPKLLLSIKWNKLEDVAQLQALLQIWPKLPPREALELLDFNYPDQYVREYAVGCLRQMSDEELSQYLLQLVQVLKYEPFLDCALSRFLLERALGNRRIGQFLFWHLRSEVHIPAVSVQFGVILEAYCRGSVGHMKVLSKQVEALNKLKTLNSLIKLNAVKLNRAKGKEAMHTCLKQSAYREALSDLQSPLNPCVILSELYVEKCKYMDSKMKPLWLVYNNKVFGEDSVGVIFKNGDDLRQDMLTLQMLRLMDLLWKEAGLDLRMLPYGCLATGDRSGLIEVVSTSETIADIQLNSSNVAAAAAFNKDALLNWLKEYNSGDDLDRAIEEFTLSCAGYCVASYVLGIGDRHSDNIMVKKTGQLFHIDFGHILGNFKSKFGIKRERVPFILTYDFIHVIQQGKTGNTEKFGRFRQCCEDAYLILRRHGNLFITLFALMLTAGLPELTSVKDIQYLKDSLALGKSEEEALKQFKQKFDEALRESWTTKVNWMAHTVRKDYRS
PI3K p110β, sequence (P27986 whole entry partner): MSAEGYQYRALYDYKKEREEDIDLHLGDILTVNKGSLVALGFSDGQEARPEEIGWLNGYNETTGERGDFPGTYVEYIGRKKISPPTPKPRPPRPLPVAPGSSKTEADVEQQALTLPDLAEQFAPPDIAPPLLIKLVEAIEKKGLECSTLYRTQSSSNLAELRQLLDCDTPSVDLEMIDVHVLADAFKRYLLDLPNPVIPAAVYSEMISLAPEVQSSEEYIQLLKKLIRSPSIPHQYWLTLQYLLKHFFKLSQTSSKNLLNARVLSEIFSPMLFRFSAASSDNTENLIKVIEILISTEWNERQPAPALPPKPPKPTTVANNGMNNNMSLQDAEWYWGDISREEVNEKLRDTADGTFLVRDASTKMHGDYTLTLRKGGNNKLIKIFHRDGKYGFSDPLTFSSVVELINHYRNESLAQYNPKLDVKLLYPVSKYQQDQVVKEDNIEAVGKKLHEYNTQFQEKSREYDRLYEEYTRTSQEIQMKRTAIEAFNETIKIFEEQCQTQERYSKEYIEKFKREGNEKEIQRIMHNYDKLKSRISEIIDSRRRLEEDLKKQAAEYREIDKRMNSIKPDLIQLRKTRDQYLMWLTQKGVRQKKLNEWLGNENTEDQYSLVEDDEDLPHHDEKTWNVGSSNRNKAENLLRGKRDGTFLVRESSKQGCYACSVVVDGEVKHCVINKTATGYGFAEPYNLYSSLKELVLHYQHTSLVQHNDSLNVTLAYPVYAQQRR
PI3K p110α, sequence (P42336 whole entry): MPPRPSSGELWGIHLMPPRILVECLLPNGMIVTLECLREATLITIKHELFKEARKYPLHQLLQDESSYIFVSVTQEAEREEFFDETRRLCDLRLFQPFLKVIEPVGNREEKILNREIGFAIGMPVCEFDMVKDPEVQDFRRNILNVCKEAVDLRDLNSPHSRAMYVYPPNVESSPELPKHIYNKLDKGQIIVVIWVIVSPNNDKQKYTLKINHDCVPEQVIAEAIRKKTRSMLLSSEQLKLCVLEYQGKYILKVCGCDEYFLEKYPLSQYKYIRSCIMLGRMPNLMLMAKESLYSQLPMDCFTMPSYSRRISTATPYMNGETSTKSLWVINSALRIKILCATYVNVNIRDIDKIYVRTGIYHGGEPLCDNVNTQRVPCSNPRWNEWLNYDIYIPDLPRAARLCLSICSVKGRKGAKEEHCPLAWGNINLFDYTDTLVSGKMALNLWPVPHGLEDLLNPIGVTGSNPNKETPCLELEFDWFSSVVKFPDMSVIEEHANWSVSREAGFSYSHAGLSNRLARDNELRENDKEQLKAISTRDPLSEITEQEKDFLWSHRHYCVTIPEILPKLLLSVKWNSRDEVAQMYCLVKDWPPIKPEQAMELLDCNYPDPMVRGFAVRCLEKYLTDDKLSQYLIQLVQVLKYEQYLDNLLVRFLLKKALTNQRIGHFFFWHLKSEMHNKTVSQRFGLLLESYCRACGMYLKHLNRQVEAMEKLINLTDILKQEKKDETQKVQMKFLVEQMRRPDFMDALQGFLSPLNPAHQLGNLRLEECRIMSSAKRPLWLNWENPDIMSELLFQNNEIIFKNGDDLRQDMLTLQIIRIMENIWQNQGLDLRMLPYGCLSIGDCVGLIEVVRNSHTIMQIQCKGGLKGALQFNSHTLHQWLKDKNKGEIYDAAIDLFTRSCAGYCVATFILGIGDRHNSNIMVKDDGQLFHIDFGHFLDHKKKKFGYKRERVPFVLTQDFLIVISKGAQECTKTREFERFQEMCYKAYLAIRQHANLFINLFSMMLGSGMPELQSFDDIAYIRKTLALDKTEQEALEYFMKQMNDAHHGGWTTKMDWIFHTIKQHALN
PI3K p110α, sequence (P27986 whole entry partner): as the sequence (P27986 whole entry partner) above

Row | Compound | body weight gain [1] | change of anti-dsDNA antibody levels at the end of treatment [2, 8] | IC50 [3] | ID50, primary IgM antibody responses to KLH ([4]; day +5 PI, 4 days of daily treatment, 0.03-10 mg/kg) | ID50, primary IgG antibody responses to KLH ([4]; day +15 PI, 14-day dosing, 0.03-1 mg/kg) | lymphocyte count ([4]; primary IgG study) | general health status of the animals ([4]; primary IgM and IgG studies) | WBC counts ([4]; primary IgM study, mainly reduced peripheral blood lymphocytes) | ID50, secondary IgG antibody responses to KLH ([5]; day +11 after second immunization, 0.3 and 3 mg/kg once daily) | lymphocyte counts ([5]; secondary TDAR, 0.3 and 3 mg/kg) | ID50, anti-Dsg3 and anti-dsDNA autoantibody production ([2]; Mrl/Lpr model, repeated administration) | reduction of anti-dsDNA antibody titers [2, 8] | overall disease activity, AUC of clinical score ([1]; LAS191954 orally 3 mg/kg/day, 6 weeks, versus vehicle) | IC50 [6] | % with blisters ([7]; PV IgG + LAS191954 1 mg/kg) | mice with blisters ([7]; PV IgG + LAS191954 1 mg/kg) | % with blisters ([7]; PV IgG + LAS191954 10 mg/kg) | mice with blisters ([7]; PV IgG + LAS191954 10 mg/kg) | effect on anti-Dsg3 antibody-induced skin damage ([7]; mouse, in vivo)
1 | C[C@H]1C[C@@H]2[C@H]([C@@H](O)C[C@@]3(C)[C@H]2CC[C@]3(O)C(=O)CO)[C@@]2(C)C=CC(=O)C=C12 [Methylprednisolone, reference compound] | diminished the body weight gain |  |  |  |  |  |  |  |  |  |  |  |  |  |  |  |  |  | 
2 | C[C@]12C=CC(=O)C=C1CC[C@@H]1[C@@H]2[C@@H](O)C[C@@]2(C)[C@H]1CC[C@]2(O)C(=O)CO [Prednisolone, prednisolone, reference compound] |  | doubled |  |  |  |  |  |  |  |  |  |  |  |  |  |  |  |  | 
3 | C[C@H](Nc1ncnc(N)c1C#N)c1nn2ccc(C#N)c2c(=O)n1-c1ccccc1 [LAS191954, (S)-2-(1-(6-amino-5-cyanopyrimidin-4-ylamino)ethyl)-4-oxo-3-phenyl-3,4-dihydropyrrolo[1,2-f][1,2,4]triazine-5-carbonitrile] | not altered |  | 8.22 µM | 0.12 mg/kg | 0.17 mg/kg | no apparent effect | without apparent effects | lower WBC counts | <0.3 mg/kg | reduced lymphocyte counts | <3 mg/kg | 10% | significant reduction in the accumulative clinical score | 0.0942 µM | 75% | 6 | 100% | 8 | no direct effect
